Assay results as given in publication PMC9301698 (ACS Omega, 2022).

How the values were obtained:
butyrylcholinesterase = details: read-out: butyrylcholinesterase inhibitory activity IC50; cited from earlier work
HT-29 = details: read-out: cytotoxicity against HT-29 IC50; cited from earlier work
[1] = cytotoxicity screening, summary over cell lines; format: cell-based; details: mouse, human
RAW 264.7 cells = assay: MTT cytotoxicity assay in mammalian cells; format: cell-based; details: Mus musculus, RAW264.7, read-out: IC50 RAW 264.7, MTT
K562 cells = assay: MTT cytotoxicity assay, leukemia; format: cell-based, human; details: Homo sapiens, K562, read-out: IC50 K562 (leukemia), MTT
A549 cells = assay: MTT cytotoxicity assay, lung cancer; format: cell-based, human; details: Homo sapiens, A549, read-out: IC50 A549 (lung cancer)
SW480 cells = assay: MTT cytotoxicity assay, colorectal cancer; format: cell-based, human; details: Homo sapiens, SW480, read-out: IC50 SW480 (Colorectal cancer), MTT
[2] = MTT cytotoxicity assay, colorectal cancer; format: cell-based, human; details: human, SW480 cells (colorectal cancer)
[3] = MTT cytotoxicity assay in mammalian cells; format: cell-based; details: mouse, RAW 264.7 cells
[4] = MTT cytotoxicity assay, leukemia; format: cell-based, human; details: human, K562 cells (leukemia)
[5] = MTT cytotoxicity assay, lung cancer; format: cell-based, human; details: human, A549 cells (lung cancer)
α-glucosidase [6] = biological target: T1, α-glucosidase (Saccharomyces cerevisiae, UniProt P53341); assay: colorimetric α-glucosidase inhibitory assay; format: biochemical; details: mean ± SD
α-amylase = biological target: T2, α-amylase (Sus scrofa, UniProt P00690); assay: α-amylase inhibitory assay; format: biochemical; details: at a concentration of 100 μg/mL; mean ± SD
T2 sequence (P00690 16-511): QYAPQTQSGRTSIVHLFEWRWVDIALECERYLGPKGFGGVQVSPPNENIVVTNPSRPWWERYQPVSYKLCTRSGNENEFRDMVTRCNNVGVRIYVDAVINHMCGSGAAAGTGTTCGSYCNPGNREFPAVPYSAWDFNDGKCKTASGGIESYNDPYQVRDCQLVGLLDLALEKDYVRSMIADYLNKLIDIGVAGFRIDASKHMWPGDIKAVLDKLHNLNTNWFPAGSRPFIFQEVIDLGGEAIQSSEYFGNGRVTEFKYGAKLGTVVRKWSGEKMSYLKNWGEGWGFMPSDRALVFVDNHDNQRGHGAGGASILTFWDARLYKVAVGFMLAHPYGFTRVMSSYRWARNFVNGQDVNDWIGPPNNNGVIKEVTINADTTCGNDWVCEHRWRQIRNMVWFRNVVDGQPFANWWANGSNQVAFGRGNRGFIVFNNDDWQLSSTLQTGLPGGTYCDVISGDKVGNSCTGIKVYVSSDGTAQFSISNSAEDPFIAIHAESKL

HepG2 cell lines = details: read-out: cytotoxicity against HepG2 cell lines IC50; cited from earlier work
[7] = cited from earlier work
α-glucosidase [8] = biological target: T1, α-glucosidase; details: read-out: α-glucosidase inhibitory activity IC50; cited from earlier work

T1 sequence (P53341 whole entry): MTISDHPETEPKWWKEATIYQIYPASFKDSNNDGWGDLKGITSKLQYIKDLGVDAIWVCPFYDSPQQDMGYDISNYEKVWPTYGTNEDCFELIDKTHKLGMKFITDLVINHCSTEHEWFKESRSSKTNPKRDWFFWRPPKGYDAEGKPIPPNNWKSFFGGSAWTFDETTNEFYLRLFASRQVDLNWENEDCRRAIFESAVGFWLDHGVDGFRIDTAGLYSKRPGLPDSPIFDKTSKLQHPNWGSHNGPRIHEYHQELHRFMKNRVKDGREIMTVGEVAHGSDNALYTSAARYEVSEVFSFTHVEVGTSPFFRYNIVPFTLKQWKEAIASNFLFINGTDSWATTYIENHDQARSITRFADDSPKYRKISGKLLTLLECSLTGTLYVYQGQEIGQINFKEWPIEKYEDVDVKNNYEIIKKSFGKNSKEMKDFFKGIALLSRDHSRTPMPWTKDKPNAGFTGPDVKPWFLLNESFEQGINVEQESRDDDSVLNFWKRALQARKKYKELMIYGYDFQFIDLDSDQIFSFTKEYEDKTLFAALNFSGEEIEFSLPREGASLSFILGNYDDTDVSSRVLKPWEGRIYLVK

With `COc1ccc(-c2coc3c4c(ccc3c2=O)OC(C)(C)C=C4)cc1OC` [4′,5′-dimethoxy-6,6-dimethylpyranoisoflavone] as the compound, how does the IC50 (butyrylcholinesterase) read?
Its IC50 is 2.34 µM.

With `C=C(C)[C@H]1Cc2c(ccc3c2O[C@@H]2COc4cc(OC)c(OC)cc4[C@]2(O)C3=O)O1` [(−)-Hydroxyrotenone] as the compound, how does the IC50 (HT-29) read?
The IC50 was 0.1 µM.

With `C=C(C)[C@H]1Cc2c(ccc3c2O[C@@H]2COc4cc(OC)c(OC)cc4[C@@H]2C3=O)O1` [(−)-rotenone] as the compound, how does the IC50 (HT-29) read?
The IC50 was 0.3 µM.

Which viability ([1]; RAW 264.7 and SW480 cells) does the source give for `CC(C)=CCc1c(O)c(CC=C(C)C)c2occ(-c3ccc(O)cc3)c(=O)c2c1O` [Compound 10, 6,8-diprenylgenistein] here?
Its viability is 5.66 to 77%.

And the IC50 (RAW 264.7 cells)?
Its IC50 is > 100 µM.

And the IC50 (K562 cells)?
The IC50 was > 100 µM.

What about the IC50 (A549 cells) of the same compound?
Its IC50 is > 100 µM.

And the IC50 (SW480 cells)?
Its IC50 is > 100 µM.

And the viability at 6.25 μg/mL [2]?
The viability at 6.25 μg/mL was 117.5 ± 0.31%.

What about the viability at 12.5 μg/mL [2] of the same compound?
Its viability at 12.5 μg/mL is 118.8 ± 0.92%.

And the viability at 25 μg/mL [2]?
Its viability at 25 μg/mL is 117 ± 3.08%.

What about the viability at 50 μg/mL [2] of the same compound?
The viability at 50 μg/mL was 94.7 ± 3.85%.

What about the viability at 100 μg/mL [2] of the same compound?
Its viability at 100 μg/mL is 77 ± 3.95%.

With `C=C(C)C(O)Cc1c(O)c(CC=C(C)C)c2occ(-c3ccc(O)cc3)c(=O)c2c1O` (centres unmarked) [Compound 13, isoerysenegalensein E] as the compound, how does the viability ([1]; RAW 264.7 and SW480 cells) read?
Its viability is 5.66 to 77%.

What about the IC50 (RAW 264.7 cells) of the same compound?
The IC50 was 56.1 µM.

And the viability at 24 h, 6.25 μg/mL [3]?
Its viability at 24 h, 6.25 μg/mL is 103 ± 8.01%.

And the viability at 24 h, 12.5 μg/mL [3]?
Its viability at 24 h, 12.5 μg/mL is 100 ± 2.13%.

What about the viability at 24 h, 25 μg/mL [3] of the same compound?
Its viability at 24 h, 25 μg/mL is 61.9 ± 3.12%.

And the viability at 24 h, 50 μg/mL [3]?
Its viability at 24 h, 50 μg/mL is 47.3 ± 2.94%.

And the viability at 24 h, 100 μg/mL [3]?
The viability at 24 h, 100 μg/mL was 29.4 ± 3.72%.

What about the IC50 (K562 cells) of the same compound?
Its IC50 is > 100 µM.

And the IC50 (A549 cells)?
The IC50 was > 100 µM.

And the IC50 (SW480 cells)?
The IC50 was > 100 µM.

And the viability at 6.25 μg/mL [2]?
The viability at 6.25 μg/mL was 94 ± 4.18%.

What about the viability at 12.5 μg/mL [2] of the same compound?
Its viability at 12.5 μg/mL is 92.8 ± 1.57%.

And the viability at 25 μg/mL [2]?
Its viability at 25 μg/mL is 90.4 ± 1.91%.

What about the viability at 50 μg/mL [2] of the same compound?
The viability at 50 μg/mL was 89.5 ± 3.29%.

What about the viability at 100 μg/mL [2] of the same compound?
The viability at 100 μg/mL was 59.5 ± 1.3%.

What does the source list for `CC(C)=CCc1c2c(c3occ(-c4ccc(O)cc4)c(=O)c3c1O)CC(C(C)(C)O)O2` (centres unmarked) [Compound 16, senegalensin]?
viability ([1]; A549, SW480, K562 and RAW 264.7 cells): 4.53 to 48.2%; IC50 (RAW 264.7 cells): 51.5 µM; viability at 24 h, 6.25 μg/mL [3]: 154 ± 1.59%; viability at 24 h, 12.5 μg/mL [3]: 139 ± 6.94%; viability at 24 h, 25 μg/mL [3]: 58.7 ± 2.23%; viability at 24 h, 50 μg/mL [3]: 6 ± 0.65%; viability at 24 h, 100 μg/mL [3]: 5.3 ± 0.01%; IC50 (K562 cells): 21.5 µM; viability at 6.25 μg/mL [4]: 76.6 ± 3.38%; viability at 12.5 μg/mL [4]: 28.8 ± 0.39%; viability at 25 μg/mL [4]: 11.54 ± 0.06%; viability at 50 μg/mL [4]: 10.2 ± 0.15%; viability at 100 μg/mL [4]: 9.7 ± 0.15%; IC50 (A549 cells): 70.9 µM; viability at 6.25 μg/mL [5]: 126 ± 1.36%; viability at 12.5 μg/mL [5]: 116 ± 2.68%; viability at 25 μg/mL [5]: 97 ± 9.76%; viability at 50 μg/mL [5]: 6.25 ± 0.33%; viability at 100 μg/mL [5]: 4.53 ± 0.07%; IC50 (SW480 cells): 69.8 µM; viability at 6.25 μg/mL [2]: 166 ± 6.12%; viability at 12.5 μg/mL [2]: 142 ± 1.71%; viability at 25 μg/mL [2]: 122 ± 6.64%; viability at 50 μg/mL [2]: 6.6 ± 0.14%; viability at 100 μg/mL [2]: 6.09 ± 0.11%

For `C[C@H]1O[C@H](O[C@H]2[C@H](O)[C@@H](O)[C@@H](O[C@H]3[C@H](O)[C@@H](O)C(O)O[C@@H]3CO)O[C@@H]2CO)[C@H](O)[C@@H](O)[C@@H]1N[C@H]1C=C(CO)[C@@H](O)[C@H](O)[C@H]1O` (some centres unmarked) [acarbose], which “α-glucosidase inhibition, inhibition rate (%)” value (α-glucosidase [6]) is on record?
Its value is 57.2 ± 0.8%.

And the “α-amylase inhibition, inhibition rate (%)” value (α-amylase)?
Its value is 58.5 ± 1.9%.

Which IC50 (HepG2 cell lines) does the source give for `COc1cc(OC)c(-c2coc3c4c(ccc3c2=O)OC(C)(C)C=C4)cc1OC` [barbigerone] here?
The IC50 was 0.61 µM.

For `COc1cc2c(cc1OC)[C@@H]1C(=O)c3ccc4c(c3O[C@@H]1CO2)C=CC(C)(C)O4` [deguelin], which IC50 (butyrylcholinesterase) is on record?
The IC50 was 14.2 µM.

Which results are given for `COc1cccc2c1C(=O)c1c(O)c3c(c(O)c1C2=O)C[C@@](O)(C(=O)CO)C[C@@H]3O[C@H]1C[C@H](N)[C@H](O)[C@H](C)O1` [doxorubicin, reference compound]?
IC50 (RAW 264.7 cells): < 11.5 µM; viability at 24 h, 6.25 μg/mL [3]: 4.62 ± 0.17%; viability at 24 h, 12.5 μg/mL [3]: 5.35 ± 0.27%; viability at 24 h, 25 μg/mL [3]: 4.59 ± 0.01%; viability at 24 h, 50 μg/mL [3]: 4.44 ± 0.08%; viability at 24 h, 100 μg/mL [3]: 5.96 ± 0.42%; IC50 (K562 cells): 86.8 µM; viability at 12.5 μg/mL [4]: 70.3 ± 0.89%; viability at 25 μg/mL [4]: 59.5 ± 1.8%; viability at 50 μg/mL [4]: 49.6 ± 2.2%; viability at 100 μg/mL [4]: 32.4 ± 0.89%; IC50 (A549 cells): 134 µM; viability at 6.25 μg/mL [5]: 79.6 ± 1.89%; viability at 12.5 μg/mL [5]: 74 ± 0.75%; viability at 25 μg/mL [5]: 57.7 ± 1.71%; viability at 50 μg/mL [5]: 52.8 ± 1.51%; viability at 100 μg/mL [5]: 10.1 ± 3.11%; IC50 (SW480 cells): 53.4 µM; viability at 6.25 μg/mL [2]: 80 ± 2.48%; viability at 12.5 μg/mL [2]: 73.9 ± 1.19%; viability at 25 μg/mL [2]: 60.2 ± 1.51%; viability at 50 μg/mL [2]: 17.8 ± 1.49%; viability at 100 μg/mL [2]: 16.8 ± 1.29%

With `COc1cc2c(cc1OC)[C@]1(O)C(=O)c3ccc4c(c3O[C@@H]1CO2)C=CC(C)(C)O4` [tephrosin] as the compound, how does the cell toxicity ([7]; at a concentration of 3.125 μM) read?
The cell toxicity was “without cell toxicity”.

What about the IC50 ([7]; read-out: anti-inflammatory activity IC50) of the same compound?
The IC50 was < 10 µM.

For berectones A, which IC50 (α-glucosidase [8]) is on record?
The IC50 was 144 µM.
